Measurements published in patent publication US9029325B2, “Amylin analogues and pharmaceutical compositions thereof” (Novo Nordisk A/S, priority 2011, dated 2015).
Starred links: 1 amine or outer side, 2 acyl side, 3 side chain; linkers in the order of their positions; H or OH if unused. Positions of bridges follow the written chain, without caps; N, C: chain ends. Residues, ends and D or L forms follow the SMILES beside them. *: point of attachment. C20 diacid = O=C(O)CCCCCCCCCCCCCCCCCCC(=O)*; γGlu = O=C(O)[C@H](CCC(=O)[*:2])N[*:1]

Assay: Assay (III) ThT fibrillation assay for physical stability
Assay type: physicochemical
Settings: for Th T pH 4.0 lag time (h): 37° C., orbital shaking 960 rpm; for ThT pH 4.0 lag time: Table 9
Source text: Low physical stability of a polypeptide may lead to amyloid fibril formation, which is observed as well-ordered, thread-like macromolecular structures in the sample eventually resulting in gel formation. This has traditionally been measured by visual inspection of the sample. However, that kind of measurement is very subjective and depending on the observer. Therefore, the application of a small molecule indicator probe is much more advantageous. Thioflavin T (ThT) is such a probe and has a distinct fluorescence signature when binding to fibrils [Naiki et al. (1989) Anal. Biochem. 177, 244-249; LeVine (1999) Methods. Enzymol. […], 274-284].
The time course for fibril formation can be described by a sigmoidal curve with the following expression [Nielsen et al. (2001) Biochemistry 40, 6036-6046]:
[formula] Here, F is the ThT fluorescence at the time t. The constant t0 is the time needed to reach 50% of maximum fluorescence. The two important parameters describing fibril formation are the lag-time calculated by t0−2T and the apparent rate constant kapp=1/τ.
Few of those intermediates nucleate to form a template onto which further intermediates may assembly and the fibrillation proceeds. The lag-time corresponds to the interval in which the critical mass of nucleus is built up and the apparent rate constant is the rate with which the fibril itself is formed.
Samples were prepared freshly before each assay. Each sample composition is described in each example. The pH of the sample was adjusted to the desired value using appropriate amounts of concentrated NaOH and HClO4 or HCl. Thioflavin T was added to the samples from a stock solution in H2O to a final concentration of 1 μM.
Sample aliquots of 200 μl were placed in a 96 well microtiter plate (Packard OptiPlate™-96, white polystyrene). Usually, four or eight replica of each sample (corresponding to one test condition) were placed in one column of wells. The plate was sealed with Scotch Pad (Qiagen).
Incubation at given temperature, shaking and measurement of the ThT fluorescence emission were done in a Fluoroskan Ascent FL fluorescence platereader or Varioskan platereader (Thermo Labsystems). The temperature was adjusted to 37° C. The orbital shaking was adjusted to 960 rpm with an amplitude of 1 mm in all the presented data. Fluorescence measurement was done using excitation through a 444 nm filter and measurement of emission through a 485 nm filter.
Each run was initiated by incubating the plate at the assay temperature for 10 min. The plate was measured every 20 minutes for a desired period of time. Between each measurement, the plate was shaken and heated as described.
The measurement points were saved in Microsoft Excel format for further processing and curve drawing and fitting was performed using GraphPad Prism. The background emission from ThT in the absence of fibrils was negligible. The data points are typically a mean of four or eight samples and shown with standard deviation error bars. Only data obtained in the same experiment (i.e. samples on the same plate) are presented in the same graph ensuring a relative measure of fibrillation […].
The data set may be fitted to Eq. (1). However, since full sigmodial curves in this case are not always achieved during the measurement time, the degree of fibrillation is expressed as ThT fluorescence tabulated as the mean of the samples and shown with the standard deviation at various time points.
The polypeptide concentration in each of the tested formulations were measured both before application in the ThT fibrillation assay (“Initial”) and after completion of the ThT fibrillation (“After ThT assay”). Concentrations were determined by reverse HPLC methods using a pramlintide standard as a reference. Before measurement after completion 150 μl was collected from each of the replica and transferred to an Eppendorf tube. These were centrifuged at 30000 G for 40 mins. […]

Th T pH 4.0 lag time (h)	ThT pH 4.0 lag time	SMILES
29 h	–	CC[C@H](C)[C@H](NC(=O)[C@@H]1CCCN1C(=O)CNC(=O)[C@H](Cc1ccccc1)NC(=O)[C@H](CC(N)=O)NC(=O)[C@H](CCC(N)=O)NC(=O)[C@H](CO)NC(=O)[C@H](CO)NC(=O)[C@H](Cc1c[nH]cn1)NC(=O)[C@H](Cc1c[nH]cn1)NC(=O)[C@H](CC(C)C)NC(=O)[C@H](Cc1ccccc1)NC(=O)[C@H](CCC(=O)O)NC(=O)[C@H](C)NC(=O)[C@H](CC(C)C)NC(=O)[C@H](CCCNC(=N)N)NC(=O)[C@H](CCC(N)=O)NC(=O)[C@@H](NC(=O)[C@H](C)NC(=O)[C@@H]1CSSC[C@H](NC(=O)CNC(=O)CC[C@H](NC(=O)CCCCCCCCCCCCCCCCCCC(=O)O)C(=O)O)C(=O)N[C@@H](CC(N)=O)C(=O)N[C@@H]([C@@H](C)O)C(=O)N[C@@H](C)C(=O)N[C@@H]([C@@H](C)O)C(=O)N1)[C@@H](C)O)C(=O)N[C@@H](CC(C)C)C(=O)N1CCC[C@H]1C(=O)N1CCC[C@H]1C(=O)N[C@H](C(=O)N[C@@H](CC(N)=O)C(=O)N[C@H](C(=O)NCC(=O)N[C@@H](CO)C(=O)N[C@@H](CCC(N)=O)C(=O)N[C@H](C(=O)N1CCC[C@H]1C(N)=O)[C@@H](C)O)C(C)C)[C@@H](C)O [Example 137, N-alpha-[(S)-4-Carboxy-4-(19-carboxynonadecanoylamino)butyryl]-[Gly1, Glu14, His17, Gln21, Gln35, Pro37]-pramlintide] ({C20 diacid-γGlu}-GCNTATCATQRLAEFLHHSSQNFGPILPPTNVGSQTP-NH2; disulfide 2-7)
>45 h	>45 hr	CC[C@H](C)[C@H](NC(=O)[C@@H]1CCCN1C(=O)CNC(=O)[C@H](Cc1ccccc1)NC(=O)[C@H](CC(N)=O)NC(=O)[C@H](CC(N)=O)NC(=O)[C@H](CO)NC(=O)[C@H](CO)NC(=O)[C@H](Cc1c[nH]cn1)NC(=O)[C@H](Cc1c[nH]cn1)NC(=O)[C@H](CC(C)C)NC(=O)[C@H](Cc1ccccc1)NC(=O)[C@H](CCC(=O)O)NC(=O)[C@H](C)NC(=O)[C@H](CC(C)C)NC(=O)[C@H](CCCCN)NC(=O)[C@H](CCC(N)=O)NC(=O)[C@@H](NC(=O)[C@H](C)NC(=O)[C@@H]1CSSC[C@H](NC(=O)[C@H](CCCCN)NC(=O)CC[C@H](NC(=O)CCCCCCCCCCCCCCCCCCC(=O)O)C(=O)O)C(=O)N[C@@H](CC(N)=O)C(=O)N[C@@H]([C@@H](C)O)C(=O)N[C@@H](C)C(=O)N[C@@H]([C@@H](C)O)C(=O)N1)[C@@H](C)O)C(=O)N[C@@H](CC(C)C)C(=O)N1CCC[C@H]1C(=O)N1CCC[C@H]1C(=O)N[C@H](C(=O)N[C@@H](CC(N)=O)C(=O)N[C@H](C(=O)NCC(=O)N[C@@H](CO)C(=O)N[C@@H](CC(N)=O)C(=O)N[C@H](C(=O)N1CCC[C@H]1C(N)=O)[C@@H](C)O)C(C)C)[C@@H](C)O [Example 145, N-alpha-[(S)-4-Carboxy-4-(19-carboxynonadecanoylamino)butyryl]-[Lys11, Glu14, His17, Pro37]-pramlintide] ({C20 diacid-γGlu}-KCNTATCATQKLAEFLHHSSNNFGPILPPTNVGSNTP-NH2; disulfide 2-7)
>45 h	>45 hr	CC[C@H](C)[C@H](NC(=O)[C@@H]1CCCN1C(=O)CNC(=O)[C@H](Cc1ccccc1)NC(=O)[C@H](CC(N)=O)NC(=O)[C@@H](NC(=O)[C@H](CO)NC(=O)[C@H](CO)NC(=O)[C@H](Cc1c[nH]cn1)NC(=O)[C@H](Cc1c[nH]cn1)NC(=O)[C@H](CC(C)C)NC(=O)[C@H](Cc1ccccc1)NC(=O)[C@H](CCC(=O)O)NC(=O)[C@H](C)NC(=O)[C@H](CC(C)C)NC(=O)[C@H](CCCNC(=N)N)NC(=O)[C@H](CCC(N)=O)NC(=O)[C@@H](NC(=O)[C@H](C)NC(=O)[C@@H]1CSSC[C@H](NC(=O)[C@H](CCCCN)NC(=O)CC[C@H](NC(=O)CCCCCCCCCCCCCCCCCCC(=O)O)C(=O)O)C(=O)N[C@@H](CC(N)=O)C(=O)N[C@@H]([C@@H](C)O)C(=O)N[C@@H](C)C(=O)N[C@@H]([C@@H](C)O)C(=O)N1)[C@@H](C)O)[C@@H](C)O)C(=O)N[C@@H](CC(C)C)C(=O)N1CCC[C@H]1C(=O)N1CCC[C@H]1C(=O)N[C@H](C(=O)N[C@@H](CC(N)=O)C(=O)N[C@H](C(=O)NCC(=O)N[C@@H](CO)C(=O)N[C@@H](CC(N)=O)C(=O)N[C@H](C(=O)N1CCC[C@H]1C(N)=O)[C@@H](C)O)C(C)C)[C@@H](C)O [Example 146, N-alpha-[(S)-4-Carboxy-4-(19-carboxynonadecanoylamino)butyryl]-[Glu14, His17, Thr21, Pro37]-pramlintide] ({C20 diacid-γGlu}-KCNTATCATQRLAEFLHHSSTNFGPILPPTNVGSNTP-NH2; disulfide 2-7 (inferred); C-terminus assumed)
>45 h	–	CC[C@H](C)[C@H](NC(=O)[C@@H]1CCCN1C(=O)CNC(=O)[C@H](Cc1ccccc1)NC(=O)[C@H](CC(N)=O)NC(=O)[C@H](CC(N)=O)NC(=O)[C@H](CO)NC(=O)[C@H](CO)NC(=O)[C@H](Cc1c[nH]cn1)NC(=O)[C@H](CCCNC(=N)N)NC(=O)[C@H](CC(C)C)NC(=O)[C@H](Cc1ccccc1)NC(=O)[C@H](CCC(=O)O)NC(=O)[C@H](C)NC(=O)[C@H](CC(C)C)NC(=O)[C@H](CCCNC(=N)N)NC(=O)[C@H](CCC(N)=O)NC(=O)[C@@H](NC(=O)[C@H](C)NC(=O)[C@@H]1CSSC[C@H](NC(=O)[C@H](CCCNC(=N)N)NC(=O)[C@H](CCC(=O)O)NC(=O)CC[C@H](NC(=O)CCCCCCCCCCCCCCCCCCC(=O)O)C(=O)O)C(=O)N[C@@H](CC(N)=O)C(=O)N[C@@H]([C@@H](C)O)C(=O)N[C@@H](C)C(=O)N[C@@H]([C@@H](C)O)C(=O)N1)[C@@H](C)O)C(=O)N[C@@H](CC(C)C)C(=O)N1CCC[C@H]1C(=O)N1CCC[C@H]1C(=O)N[C@H](C(=O)N[C@@H](CC(N)=O)C(=O)N[C@H](C(=O)NCC(=O)N[C@@H](CO)C(=O)N[C@@H](CC(N)=O)C(=O)N[C@H](C(=O)N1CCC[C@H]1C(N)=O)[C@@H](C)O)C(C)C)[C@@H](C)O [Example 156, N-alpha-[(S)-4-Carboxy-4-(19-carboxynonadecanoylamino)butyryl]-Glu-[Arg1, Glu14, Arg17, Pro37]-pramlintide] ({C20 diacid-γGlu}-ERCNTATCATQRLAEFLRHSSNNFGPILPPTNVGSNTP-NH2; disulfide 3-8)
>45 h	>45 hr	CC[C@H](C)[C@H](NC(=O)[C@@H]1CCCN1C(=O)CNC(=O)[C@H](Cc1ccccc1)NC(=O)[C@H](CC(N)=O)NC(=O)[C@H](CCC(N)=O)NC(=O)[C@H](CO)NC(=O)[C@H](CO)NC(=O)[C@H](Cc1c[nH]cn1)NC(=O)[C@H](CCCNC(=N)N)NC(=O)[C@H](CC(C)C)NC(=O)[C@H](Cc1ccccc1)NC(=O)[C@H](CCC(=O)O)NC(=O)[C@H](C)NC(=O)[C@H](CC(C)C)NC(=O)[C@H](CCCNC(=N)N)NC(=O)[C@H](CCC(N)=O)NC(=O)[C@@H](NC(=O)[C@H](C)NC(=O)[C@@H]1CSSC[C@H](NC(=O)[C@H](CCC(=O)O)NC(=O)[C@H](CCCNC(=N)N)NC(=O)[C@H](CCC(=O)O)NC(=O)CC[C@H](NC(=O)CCCCCCCCCCCCCCCCCCC(=O)O)C(=O)O)C(=O)N[C@@H](CC(N)=O)C(=O)N[C@@H]([C@@H](C)O)C(=O)N[C@@H](C)C(=O)N[C@@H]([C@@H](C)O)C(=O)N1)[C@@H](C)O)C(=O)N[C@@H](CC(C)C)C(=O)N1CCC[C@H]1C(=O)N1CCC[C@H]1C(=O)N[C@H](C(=O)N[C@@H](CC(N)=O)C(=O)N[C@H](C(=O)NCC(=O)N[C@@H](CO)C(=O)N[C@@H](CC(N)=O)C(=O)N[C@H](C(=O)N1CCC[C@H]1C(N)=O)[C@@H](C)O)C(C)C)[C@@H](C)O [Example 161, N-alpha-[(S)-4-Carboxy-4-(19-carboxynonadecanoylamino)butyryl]-Glu-Arg-[Glu1, Glu14, Arg17, Gln21, Pro37]-pramlintide] ({C20 diacid-γGlu}-ERECNTATCATQRLAEFLRHSSQNFGPILPPTNVGSNTP-NH2; disulfide 4-9 (inferred); C-terminus assumed)
